# Test results from PubChem BioAssay (NCI).
#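 Grown in 96-well plates, cells were treated for 48 hours with each compound at five concentrations. Insufficient inhibition: endpoint recorded as highest concentration tested. Abbreviation: GI50, concentration required for 50% inhibition of growth. At the TGI there is no net growth.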
# Columns and labels:
# Experiment in all cases: NCI anticancer screen, dose series, 48 h
# HS 578T breast = tested on: HS 578T breast
# NCI-H226 lung = tested on: NCI-H226 lung
# T-47D breast = tested on: T-47D breast
# HT29 colon = tested on: HT29 colon
# SNB-75 CNS = tested on: SNB-75 CNS
# CAKI-1 renal = tested on: CAKI-1 renal
# HCC-2998 colon = tested on: HCC-2998 colon
# LOX IMVI melanoma = tested on: LOX IMVI melanoma
# PC-3 prostate = tested on: PC-3 prostate
# UO-31 renal = tested on: UO-31 renal
# MALME-3M melanoma = tested on: MALME-3M melanoma
# SF-295 CNS = tested on: SF-295 CNS
# HCT-15 colon = tested on: HCT-15 colon
# MCF7 breast = tested on: MCF7 breast
# SK-OV-3 ovarian = tested on: SK-OV-3 ovarian
# U251 CNS = tested on: U251 CNS
# K-562 leukemia = tested on: K-562 leukemia
# HOP-92 NSCLC = tested on: HOP-92 NSCLC
# SK-MEL-5 melanoma = tested on: SK-MEL-5 melanoma
# SNB-19 CNS = tested on: SNB-19 CNS
# TK-10 renal = tested on: TK-10 renal
# IGROV1 ovarian = tested on: IGROV1 ovarian
# EKVX NSCLC = tested on: EKVX NSCLC
# NCI/ADR-RES ovarian = tested on: NCI/ADR-RES ovarian
# DU-145 prostate = tested on: DU-145 prostate
# OVCAR-5 ovarian = tested on: OVCAR-5 ovarian
# RXF 393 renal = tested on: RXF 393 renal
# SN12C renal = tested on: SN12C renal
# OVCAR-4 ovarian = tested on: OVCAR-4 ovarian
# SF-539 CNS = tested on: SF-539 CNS
# ACHN renal = tested on: ACHN renal
# NCI-H460 lung = tested on: NCI-H460 lung
# NCI-H522 lung = tested on: NCI-H522 lung
# M14 melanoma = tested on: M14 melanoma
# NCI-H23 lung = tested on: NCI-H23 lung
# MOLT-4 leukemia = tested on: MOLT-4 leukemia
# BT-549 breast = tested on: BT-549 breast
# OVCAR-3 ovarian = tested on: OVCAR-3 ovarian
# COLO 205 colon = tested on: COLO 205 colon
# A549 NSCLC = tested on: A549 NSCLC
# HCT-116 colon = tested on: HCT-116 colon
# MDA-MB-231 breast = tested on: MDA-MB-231 breast
# UACC-62 melanoma = tested on: UACC-62 melanoma
# SW-620 colon = tested on: SW-620 colon
# A498 renal = tested on: A498 renal
# OVCAR-8 ovarian = tested on: OVCAR-8 ovarian
# HL-60(TB) leukemia = tested on: HL-60(TB) leukemia
# 786-0 renal = tested on: 786-0 renal
# KM12 colon = tested on: KM12 colon
# RPMI-8226 leukemia = tested on: RPMI-8226 leukemia
# UACC-257 melanoma = tested on: UACC-257 melanoma
# SK-MEL-28 melanoma = tested on: SK-MEL-28 melanoma
# SF-268 CNS = tested on: SF-268 CNS
# CCRF-CEM leukemia = tested on: CCRF-CEM leukemia
# MDA-MB-435 = tested on: MDA-MB-435
compound,measurement,setting,value
Fc1ccc2c(c1)C1=C(CCC2)C(c2ccc(Cl)cc2)NC(=S)N1 (stereo not given),GI50,HS 578T breast,50.5 µM
same,TGI,HS 578T breast,> 100 µM
same,GI50,NCI-H226 lung,35.2 µM
same,TGI,NCI-H226 lung,> 100 µM
same,GI50,T-47D breast,54.4 µM
same,TGI,T-47D breast,> 100 µM
same,GI50,HT29 colon,49.9 µM
same,TGI,HT29 colon,> 100 µM
same,GI50,SNB-75 CNS,69.9 µM
same,TGI,SNB-75 CNS,> 100 µM
same,GI50,CAKI-1 renal,51.7 µM
same,TGI,CAKI-1 renal,> 100 µM
same,GI50,HCC-2998 colon,43.2 µM
same,TGI,HCC-2998 colon,> 100 µM
same,GI50,LOX IMVI melanoma,36 µM
same,TGI,LOX IMVI melanoma,> 100 µM
same,GI50,PC-3 prostate,17.6 µM
same,TGI,PC-3 prostate,> 100 µM
same,GI50,UO-31 renal,16.9 µM
same,TGI,UO-31 renal,> 100 µM
same,GI50,MALME-3M melanoma,22.6 µM
same,TGI,MALME-3M melanoma,80.2 µM
same,GI50,SF-295 CNS,47 µM
same,TGI,SF-295 CNS,> 100 µM
same,GI50,HCT-15 colon,26.2 µM
same,TGI,HCT-15 colon,> 100 µM
same,GI50,MCF7 breast,26.6 µM
same,TGI,MCF7 breast,> 100 µM
same,GI50,SK-OV-3 ovarian,> 100 µM
same,TGI,SK-OV-3 ovarian,> 100 µM
same,GI50,U251 CNS,54.7 µM
same,TGI,U251 CNS,> 100 µM
same,GI50,K-562 leukemia,32.4 µM
same,TGI,K-562 leukemia,> 100 µM
same,GI50,HOP-92 NSCLC,16.7 µM
same,TGI,HOP-92 NSCLC,73.9 µM
same,GI50,SK-MEL-5 melanoma,28.4 µM
same,TGI,SK-MEL-5 melanoma,> 100 µM
same,GI50,SNB-19 CNS,77.9 µM
same,TGI,SNB-19 CNS,> 100 µM
same,GI50,TK-10 renal,12.6 µM
same,TGI,TK-10 renal,80.3 µM
same,GI50,IGROV1 ovarian,10.3 µM
same,TGI,IGROV1 ovarian,> 100 µM
same,GI50,EKVX NSCLC,32.8 µM
same,TGI,EKVX NSCLC,> 100 µM
same,GI50,NCI/ADR-RES ovarian,61.6 µM
same,TGI,NCI/ADR-RES ovarian,> 100 µM
same,GI50,DU-145 prostate,49.1 µM
same,TGI,DU-145 prostate,> 100 µM
same,GI50,OVCAR-5 ovarian,> 100 µM
same,TGI,OVCAR-5 ovarian,> 100 µM
same,GI50,RXF 393 renal,81.4 µM
same,TGI,RXF 393 renal,> 100 µM
same,GI50,SN12C renal,60.8 µM
same,TGI,SN12C renal,89.2 µM
same,GI50,OVCAR-4 ovarian,44.8 µM
same,TGI,OVCAR-4 ovarian,> 100 µM
same,GI50,SF-539 CNS,37.6 µM
same,TGI,SF-539 CNS,> 100 µM
same,GI50,ACHN renal,29.5 µM
same,TGI,ACHN renal,> 100 µM
same,GI50,NCI-H460 lung,32.7 µM
same,TGI,NCI-H460 lung,> 100 µM
same,GI50,NCI-H522 lung,13.1 µM
same,TGI,NCI-H522 lung,94 µM
same,GI50,M14 melanoma,40.9 µM
same,TGI,M14 melanoma,> 100 µM
same,GI50,NCI-H23 lung,84.7 µM
same,TGI,NCI-H23 lung,> 100 µM
same,GI50,MOLT-4 leukemia,24.5 µM
same,TGI,MOLT-4 leukemia,> 100 µM
same,GI50,BT-549 breast,> 100 µM
same,TGI,BT-549 breast,> 100 µM
same,GI50,OVCAR-3 ovarian,27.8 µM
same,TGI,OVCAR-3 ovarian,> 100 µM
same,GI50,COLO 205 colon,62.1 µM
same,TGI,COLO 205 colon,> 100 µM
same,GI50,A549 NSCLC,20.7 µM
same,TGI,A549 NSCLC,> 100 µM
same,GI50,HCT-116 colon,26.1 µM
same,TGI,HCT-116 colon,> 100 µM
same,GI50,MDA-MB-231 breast,24.2 µM
same,TGI,MDA-MB-231 breast,> 100 µM
same,GI50,UACC-62 melanoma,33.6 µM
same,TGI,UACC-62 melanoma,> 100 µM
same,GI50,SW-620 colon,39.1 µM
same,TGI,SW-620 colon,> 100 µM
same,GI50,A498 renal,43.6 µM
same,TGI,A498 renal,> 100 µM
same,GI50,OVCAR-8 ovarian,25.8 µM
same,TGI,OVCAR-8 ovarian,> 100 µM
same,GI50,HL-60(TB) leukemia,7.51 µM
same,TGI,HL-60(TB) leukemia,> 100 µM
same,GI50,786-0 renal,25 µM
same,TGI,786-0 renal,> 100 µM
same,GI50,KM12 colon,32.3 µM
same,TGI,KM12 colon,> 100 µM
same,GI50,RPMI-8226 leukemia,13.1 µM
same,TGI,RPMI-8226 leukemia,53.8 µM
same,GI50,UACC-257 melanoma,21.5 µM
same,TGI,UACC-257 melanoma,70 µM
same,GI50,SK-MEL-28 melanoma,78 µM
same,TGI,SK-MEL-28 melanoma,> 100 µM
same,GI50,SF-268 CNS,83.8 µM
same,TGI,SF-268 CNS,> 100 µM
same,GI50,CCRF-CEM leukemia,31.8 µM
same,TGI,CCRF-CEM leukemia,> 100 µM
same,GI50,MDA-MB-435,40.9 µM
same,TGI,MDA-MB-435,> 100 µM
